Measured values from patent US20210038587A1, “METHODS AND COMPOSITIONS FOR TREATING NON-ERK MAPK PATHWAY INHIBITOR-RESISTANT CANCERS” (BIOMED VALLEY DISCOVERIES, INC., priority 2013, published 2021).

Key:
AN3Ca = test: Reverse Phase Protein Analysis (RPPA); type: cell-based; settings: % change from DMSO (matched cell line)
Experimental: (§1) Control wells were treated with DMSO at 0.1% (v/v) for 6 hours prior to cell lysate generation. Samples were then analyzed using reverse-phase protein microarray technology (Theranostics Health).
(§2) Cell lines with common alterations in BRAF and RAS were assayed: BRAF^V600E mutant lines A375, Colo205, and HT29; KRAS^G12C-mutant cell line MIAPACa-2; KRAS^G13D-mutant cell line HCT116; and AN3Ca with atypical HRAS^F82L mutation. Changes in protein levels are shown as a percentage change from dimethyl sulfoxide (DMSO)-treated parental control (FIG. 32A and Table 23).

HT29 = test: Reverse Phase Protein Analysis (RPPA); type: cell-based; settings: % change from DMSO (matched cell line)
Experimental: as §1, §2

CC(C)Nc1cc(-c2c[nH]c(C(=O)N[C@H](CO)c3cccc(Cl)c3)c2)c(Cl)cn1 [BVD-523]
Avg (Akt S473) (AN3Ca): 52.11%
Avg (Akt) (AN3Ca): −22.43%
Avg (Bad S136) (AN3Ca): −1.02%
Avg (Bad S155) (AN3Ca): 0.66%
Avg (Bak) (AN3Ca): 3.38%
Avg (Bax) (AN3Ca): −10.47%
Avg (Bcl 2) (AN3Ca): −16.83%
Avg (Bcl2 S70) (AN3Ca): −14.81%
Avg (Bcl 2 T56) (AN3Ca): −12.85%
Avg (Bim) (AN3Ca): −12.57%
Avg (CREB S133) (AN3Ca): 1.03%
Avg (Caspase 3 CL D175) (AN3Ca): −10.8%
Avg (Caspase 7 Cl D198) (AN3Ca): −12.35%
Avg (Chk1) (AN3Ca): −8.45%
Avg (Chk1 S345) (AN3Ca): −13.34%
Avg (Cyclin D1) (AN3Ca): −0.69%
Avg (ERK 1 2) (AN3Ca): −9.05%
Avg (ERK 1 2 T202 Y204) (AN3Ca): 733.27%
Avg (MAK1 S360) (AN3Ca): 0.49%
Avg (Mcl1) (AN3Ca): −4.9%
Avg (Raptor S792) (AN3Ca): −8.47%
Avg (Raptor) (AN3Ca): −13.82%
Avg (Rictor) (AN3Ca): −4.52%
Avg (Stat1) (AN3Ca): −5.65%
Avg (Stat3) (AN3Ca): −4.97%
Avg (bad S112) (AN3Ca): −54.1%
Avg (c Fos) (AN3Ca): −5.15%
Avg (c Myc) (AN3Ca): −0.58%
Avg (mTOR S2448) (AN3Ca): −10.79%
Avg (mTOR S2481) (AN3Ca): 2.75%
Avg (mTOR) (AN3Ca): 5.58%
Avg (p70 S6 Kinase) (AN3Ca): −10.27%
Avg (p90 RSK S380) (AN3Ca): −28.11%
Avg(S6 Ribo Prot S235 236) (AN3Ca): −43.41%
Avg(S6 Ribo Prot S240 244) (AN3Ca): −22.2%
Avg(Tuberin TSC2 Y1571) (AN3Ca): 2.86%
Avg(p70 S6 Kinase S371 S394) (AN3Ca): 32.26%
Avg(p70 S6 Kinase T389 T412) (AN3Ca): −14.78%
Avg (4ebp1 T70) (HT29): −41.47%
Avg (Akt S473) (HT29): −3.06%
Avg (Akt) (HT29): −13.41%
Avg (Bad S136) (HT29): 10.73%
Avg (Bad S155) (HT29): −25.9%
Avg (Bak) (HT29): −1.42%
Avg (Bax) (HT29): 8.39%
Avg (Bcl 2) (HT29): 10.68%
Avg (Bcl2 S70) (HT29): 2.83%
Avg (Bcl 2 T56) (HT29): −8.18%
Avg (Bim) (HT29): 2.81%
Avg (CREB S133) (HT29): −3.46%
Avg (Caspase 3 CL D175) (HT29): −7.03%
Avg (Caspase 7 Cl D198) (HT29): −6.93%
Avg (Chk1) (HT29): 7.4%
Avg (Chk1 S345) (HT29): −13.48%
Avg (Cyclin D1) (HT29): −37.21%
Avg (ERK 1 2) (HT29): −44.3%
Avg (ERK 1 2 T202 Y204) (HT29): 54.82%
Avg (MAK1 S360) (HT29): 1.49%
Avg (Mcl1) (HT29): −2.83%
Avg (Raptor S792) (HT29): −10.48%
Avg (Raptor) (HT29): −8.53%
Avg (Rictor) (HT29): −18.76%
Avg (Stat1) (HT29): 4.74%
Avg (Stat3) (HT29): −6.46%
Avg (bad S112) (HT29): −20.66%
Avg (c Fos) (HT29): −13.48%
Avg (c Myc) (HT29): 17.85%
Avg (mTOR S2448) (HT29): −20.68%
Avg (mTOR S2481) (HT29): −8.64%
Avg (mTOR) (HT29): 5.02%
Avg (p70 S6 Kinase) (HT29): −10.64%
Avg (p90 RSK S380) (HT29): −60.5%
Avg(S6 Ribo Prot S235 236) (HT29): −44.68%
Avg(S6 Ribo Prot S240 244) (HT29): −25.67%
Avg(Tuberin TSC2 Y1571) (HT29): 0.66%
Avg(p70 S6 Kinase S371 S394) (HT29): −35.94%
Avg(p70 S6 Kinase T389 T412) (HT29): −24.58%
